# Results from ChEMBL document CHEMBL2375345, “New antiprotozoal agents: their synthesis and biological evaluations” (Bioorg Med Chem Lett, 2013).
# Experiments:
# Leishmania donovani = test: Antiprotozoal activity against […] form of Leishmania donovani infected in primary macrophages assessed as reduction in intracellular parasite level after 90 mins by Giemsa staining method; type: functional, organism-based; conditions: 1.5 h
# Trypanosoma cruzi [1] = test: Trypanocidal activity against Trypanosoma cruzi
# [2] = tested on: Trypanosoma brucei brucei; test: Antiprotozoal activity against trypomastigote form of Trypanosoma brucei brucei 427 assessed as parasite growth inhibition; type: functional, organism-based
# [3] = Cytotoxicity against mouse peritoneal macrophages; type: cell-based; conditions: peritoneal macrophage cell
# [4] = tested on: Trypanosoma brucei rhodesiense; test: Antiprotozoal activity against trypomastigote form of Trypanosoma brucei rhodesiense STIB900 assessed as parasite growth inhibition after 72 hrs by Alamar blue assay; type: functional, organism-based; conditions: STIB900, 72 h
# [5] = Selectivity index, ratio of CC50 for human MRC5 cells to IC50 for epimastigote form of Trypanosoma cruzi Tulahuen 2; type: functional
# [6] = Selectivity index, ratio of CC50 for human MRC5 cells to IC50 for trypomastigote form of Trypanosoma brucei rhodesiense STIB900; type: functional
# Trypanosoma cruzi [7] = test: Antiprotozoal activity against epimastigote form of Trypanosoma cruzi Tulahuen 2 assessed as parasite growth inhibition measured at day 5; type: functional, organism-based; conditions: Tulahuen 2, 120 h
# [8] = Lipophilicity, log P of the compound; type: physicochemical; conditions: octanol/water
# [9] = Selectivity index, ratio of CC50 for human MRC5 cells to IC50 for trypomastigote form of Trypanosoma brucei brucei 427; type: functional
# [10] = Cytotoxicity against human MRC5 cells assessed as cell viability after 7 days by Alamar blue assay; type: cell-based
# [11] = Selectivity index, ratio of CC50 for human MRC5 cells to IC50 for amastigote form of Leishmania infantum MHOM/MA(BE)/67; type: functional
# Leishmania infantum = test: Antiprotozoal activity against amastigote form of Leishmania infantum MHOM/MA(BE)/67 infected in mouse peritoneal macrophages assessed as reduction of intracellular parasite burden after 5 days by Giemsa staining method; type: functional, organism-based; conditions: MHOM/MA(BE)/67, 120 h
# Trypanosoma cruzi [12] = test: Antiprotozoal activity against trypomastigote form of Trypanosoma cruzi Colombian infected in BALB/c mouse assessed as decrease in parasitemia at 100 mg/kg, po administered for 1 week followed by weekly administration measured after 8 months; conditions: 168 h
Compound,IC50 (Leishmania donovani),IC50 [2],IC50 [4],IC50 (Trypanosoma cruzi [7]),logP [8],IC50 (Leishmania infantum),IC50 (Trypanosoma cruzi [12]),IC50 (Trypanosoma cruzi [1]),Activity [3],Ratio CC50/IC50 [5],Ratio CC50/IC50 [6],Ratio CC50/IC50 [9],CC50 at 168 h [10],Ratio CC50/IC50 [11]
C[C@@H]1[C@H](O)[C@@H](C)/C=C/C=C/C=C/C=C/C=C/C=C/C=C/[C@H](O[C@@H]2O[C@H](C)[C@@H](O)[C@H](N)[C@@H]2O)C[C@@H]2O[C@](O)(C[C@@H](O)C[C@@H](O)[C@H](O)CC[C@@H](O)C[C@@H](O)CC(=O)O[C@H]1C)C[C@H](O)[C@H]2C(=O)O [AMPHOTERICIN B],0.25 µM,–,–,–,–,–,–,–,–,–,–,–,–,–
CC1CS(=O)(=O)CCN1/N=C/c1ccc([N+](=O)[O-])o1 (stereo not given) [NIFURTIMOX],–,–,–,–,–,–,–,1.8 µM,–,–,–,–,–,–
O=C(Cn1ccnc1[N+](=O)[O-])NCc1ccccc1 [BENZNIDAZOLE],–,–,–,–,–,–,3.66 µM,–,–,–,–,–,–,–
O=C1c2ccccc2-c2c1c(N1CCN(c3ccccn3)CC1)nc1ccc(Br)cc21,–,7.69 µM,5.98 µM,6.87 µM,6.01,20.3 µM,–,–,–,0.63,0.72,0.56,4.33 µM,0.21
O/N=C1\c2ccccc2-c2c1c(N1CCN(c3ccccn3)CC1)nc1ccc(Br)cc21,–,8.17 µM,2.61 µM,7.01 µM,6.4,9.51 µM,–,–,–,9.13,24.52,7.34,64 µM,6.73
CC(C)CC(NC(=O)OCC1c2ccccc2-c2ccccc21)C(=O)O/N=C1\c2ccccc2-c2c1c(N1CCN(c3ccccn3)CC1)nc1ccc(Br)cc21 (stereo not given),–,7.33 µM,1.52 µM,7.52 µM,8.3,3.17 µM,–,–,–,1.8,8.94,1.85,13.6 µM,4.28
O=[N+]([O-])c1ccc2nc(Oc3ccc(F)cc3C(O)Cn3ccnc3)c(Cc3ccccc3)cc2c1 (stereo not given),–,2.18 µM,1.81 µM,0.25 µM,–,2.52 µM,–,–,Non-toxic,125.76,17.37,14.42,31.4 µM,12.47
CCCCC(=O)OC1(C)c2ccccc2-c2c1c(-n1ccnc1)nc1ccc(Br)cc21 (stereo not given),–,8.11 µM,5.81 µM,1.46 µM,5.58,5.66 µM,–,–,–,14.91,3.74,2.68,21.8 µM,3.84
COc1nc2ccc(Br)cc2cc1C(c1ccccc1)n1ccnc1 (stereo not given),–,32.7 µM,8.43 µM,0.46 µM,4.52,25.4 µM,–,–,–,67.02,3.65,0.943,30.8 µM,1.21
CC1(O)c2ccccc2-c2c1c(OCC(F)(F)F)nc1ccc(Br)cc21 (stereo not given),–,8.23 µM,3.23 µM,6.92 µM,5.71,8 µM,–,–,–,2.86,6.14,2.41,19.8 µM,2.48

# Continued by falling IC50 [2], values first:
IC50 (Leishmania donovani),IC50 [2],IC50 [4],IC50 (Trypanosoma cruzi [7]),logP [8],IC50 (Leishmania infantum),IC50 (Trypanosoma cruzi [12]),Compound,IC50 (Trypanosoma cruzi [1]),Activity [3],Ratio CC50/IC50 [5],Ratio CC50/IC50 [6],Ratio CC50/IC50 [9],CC50 at 168 h [10],Ratio CC50/IC50 [11]
–,2.03 µM,1.17 µM,2.16 µM,3.68,6.01 µM,–,COc1nc2ccc(Br)cc2c2c1C(C)(OCC(O)Cn1ccnc1)c1ccccc1-2 (stereo not given),–,–,3.7,6.83,3.94,8 µM,1.33
–,0.65 µM,0.25 µM,2.89 µM,6.72,3.17 µM,–,COc1ccccc1NC(=O)Nc1ccc2nc(Oc3ccc(F)cc3C(C)O)c(Cc3ccccc3)cc2c1 (stereo not given),–,Non-toxic,2.16,–,9.55,6.21 µM,–
–,0.56 µM,0.25 µM,0.25 µM,4.64,5.08 µM,–,O=C1c2ccccc2-c2c1c(Nc1ccncc1)nc1ccc(Br)cc21,–,Non-toxic,3,3,1.34,0.75 µM,0.15
–,0.51 µM,0.25 µM,1 µM,6.84,1.7 µM,–,CC(O)c1cc(F)ccc1Oc1nc2ccc(NC(=O)Nc3cccc([N+](=O)[O-])c3)cc2cc1Cc1ccccc1 (stereo not given),–,Non-toxic,2.15,8.8,4.31,2.2 µM,1.29
–,0.25 µM,0.25 µM,0.47 µM,3.46,0.4 µM,–,COc1nc2ccc(Br)cc2c2c1C(C)(OCC(O)CN)c1ccccc1-2 (stereo not given),–,Non-toxic,2.89,5.44,5.44,1.36 µM,3.4
